Measurements: PubChem BioAssay (NCI)
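Interpolation was linear, between the two tested concentrations surrounding the appropriate level; five concentrations were tested over 48 hours in 96-well plates. GI50: concentration for 50% inhibition of growth. The concentration for full growth arrest is given as TGI.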

Assays:
Assay in all cases: growth of human tumour cells (NCI), 48 h
OVCAR-3 ovarian = tested on: OVCAR-3 ovarian
HCC-2998 colon = tested on: HCC-2998 colon
M14 melanoma = tested on: M14 melanoma
UACC-62 melanoma = tested on: UACC-62 melanoma
SF-295 CNS = tested on: SF-295 CNS
SN12C renal = tested on: SN12C renal
HCT-15 colon = tested on: HCT-15 colon
SK-MEL-5 melanoma = tested on: SK-MEL-5 melanoma
MDA-MB-435 = tested on: MDA-MB-435
NCI-H23 lung = tested on: NCI-H23 lung
HOP-92 NSCLC = tested on: HOP-92 NSCLC
SNB-19 CNS = tested on: SNB-19 CNS
UACC-257 melanoma = tested on: UACC-257 melanoma
NCI-H460 lung = tested on: NCI-H460 lung
CAKI-1 renal = tested on: CAKI-1 renal
OVCAR-4 ovarian = tested on: OVCAR-4 ovarian
HT29 colon = tested on: HT29 colon
786-0 renal = tested on: 786-0 renal
NCI/ADR-RES ovarian = tested on: NCI/ADR-RES ovarian
OVCAR-5 ovarian = tested on: OVCAR-5 ovarian
SW-620 colon = tested on: SW-620 colon
MALME-3M melanoma = tested on: MALME-3M melanoma
A498 renal = tested on: A498 renal
K-562 leukemia = tested on: K-562 leukemia
CCRF-CEM leukemia = tested on: CCRF-CEM leukemia
ACHN renal = tested on: ACHN renal
OVCAR-8 ovarian = tested on: OVCAR-8 ovarian
HL-60(TB) leukemia = tested on: HL-60(TB) leukemia
DU-145 prostate = tested on: DU-145 prostate
COLO 205 colon = tested on: COLO 205 colon
UO-31 renal = tested on: UO-31 renal
SK-MEL-2 melanoma = tested on: SK-MEL-2 melanoma
SF-539 CNS = tested on: SF-539 CNS
A549 NSCLC = tested on: A549 NSCLC
HS 578T breast = tested on: HS 578T breast
NCI-H226 lung = tested on: NCI-H226 lung
MDA-MB-231 breast = tested on: MDA-MB-231 breast
MOLT-4 leukemia = tested on: MOLT-4 leukemia
SR leukemia = tested on: SR leukemia
MCF7 breast = tested on: MCF7 breast
SK-MEL-28 melanoma = tested on: SK-MEL-28 melanoma
TK-10 renal = tested on: TK-10 renal
PC-3 prostate = tested on: PC-3 prostate
RXF 393 renal = tested on: RXF 393 renal
U251 CNS = tested on: U251 CNS
T-47D breast = tested on: T-47D breast
SNB-75 CNS = tested on: SNB-75 CNS
LOX IMVI melanoma = tested on: LOX IMVI melanoma
HCT-116 colon = tested on: HCT-116 colon
NCI-H522 lung = tested on: NCI-H522 lung
HOP-62 NSCLC = tested on: HOP-62 NSCLC
IGROV1 ovarian = tested on: IGROV1 ovarian
SK-OV-3 ovarian = tested on: SK-OV-3 ovarian
BT-549 breast = tested on: BT-549 breast
RPMI-8226 leukemia = tested on: RPMI-8226 leukemia
KM12 colon = tested on: KM12 colon
SF-268 CNS = tested on: SF-268 CNS
EKVX NSCLC = tested on: EKVX NSCLC

`Cc1ccc(C[P+](c2ccccc2)(c2ccccc2)c2ccccc2)cc1` gave a GI50 (OVCAR-3 ovarian) of 0.638 µM, a TGI (OVCAR-3 ovarian) of 5.19 µM and a GI50 (HCC-2998 colon) of 0.441 µM. It also gave a TGI (HCC-2998 colon) of 6.41 µM, a GI50 (M14 melanoma) of 1.32 µM and a TGI (M14 melanoma) of 11.1 µM. For the same compound, the GI50 (UACC-62 melanoma) was 0.907 µM, the TGI (UACC-62 melanoma) was 14.1 µM and the GI50 (SF-295 CNS) was 0.99 µM. It also gave a TGI (SF-295 CNS) of 8.11 µM, a GI50 (SN12C renal) of 1.79 µM and a TGI (SN12C renal) of 23.7 µM. The GI50 (HCT-15 colon) was 11.7 µM, the TGI (HCT-15 colon) was over 73.1 µM and the GI50 (SK-MEL-5 melanoma) was 0.321 µM. For the same compound, the TGI (SK-MEL-5 melanoma) was 1.27 µM, the GI50 (MDA-MB-435) was 0.515 µM and the TGI (MDA-MB-435) was 5.4 µM. The GI50 (NCI-H23 lung) was 0.554 µM, the TGI (NCI-H23 lung) was 5.46 µM and the GI50 (HOP-92 NSCLC) was 0.768 µM. The TGI (HOP-92 NSCLC) was 22.2 µM, the GI50 (SNB-19 CNS) was 2.18 µM and the TGI (SNB-19 CNS) was over 39.5 µM. It also gave a GI50 (UACC-257 melanoma) of 0.267 µM, a TGI (UACC-257 melanoma) of 3.56 µM and a GI50 (NCI-H460 lung) of 0.76 µM. For the same compound, the TGI (NCI-H460 lung) was 6.99 µM, the GI50 (CAKI-1 renal) was 0.486 µM and the TGI (CAKI-1 renal) was 17.3 µM. For the same compound, the GI50 (OVCAR-4 ovarian) was 0.768 µM, the TGI (OVCAR-4 ovarian) was over 100 µM and the GI50 (HT29 colon) was 0.427 µM. For the same compound, the TGI (HT29 colon) was over 41.6 µM, the GI50 (786-0 renal) was 1.71 µM and the TGI (786-0 renal) was 8.02 µM. For the same compound, the GI50 (NCI/ADR-RES ovarian) was 37.7 µM, the TGI (NCI/ADR-RES ovarian) was over 100 µM and the GI50 (OVCAR-5 ovarian) was 1.93 µM. For the same compound, the TGI (OVCAR-5 ovarian) was over 25.2 µM, the GI50 (SW-620 colon) was 1.36 µM and the TGI (SW-620 colon) was 12.2 µM. For the same compound, the GI50 (MALME-3M melanoma) was 0.428 µM, the TGI (MALME-3M melanoma) was 14.5 µM and the GI50 (A498 renal) was 1.84 µM. It also gave a TGI (A498 renal) of 7.4 µM, a GI50 (K-562 leukemia) of 0.574 µM and a TGI (K-562 leukemia) of over 24.6 µM. The GI50 (CCRF-CEM leukemia) was 1.31 µM, the GI50 (ACHN renal) was 5.94 µM and the TGI (ACHN renal) was over 74.9 µM. It also gave a GI50 (OVCAR-8 ovarian) of 0.781 µM, a TGI (OVCAR-8 ovarian) of 4.65 µM and a GI50 (HL-60(TB) leukemia) of 0.455 µM. For the same compound, the TGI (HL-60(TB) leukemia) was 3.36 µM, the GI50 (DU-145 prostate) was 1.38 µM and the TGI (DU-145 prostate) was 43.4 µM. It also gave a GI50 (COLO 205 colon) of 0.74 µM, a TGI (COLO 205 colon) of 6.7 µM and a GI50 (UO-31 renal) of 6.08 µM. The TGI (UO-31 renal) was 39.4 µM, the GI50 (SK-MEL-2 melanoma) was 2.12 µM and the TGI (SK-MEL-2 melanoma) was over 100 µM. The GI50 (SF-539 CNS) was 2.15 µM, the TGI (SF-539 CNS) was over 46.4 µM and the GI50 (A549 NSCLC) was 0.684 µM. For the same compound, the GI50 (HS 578T breast) was 0.366 µM, the TGI (HS 578T breast) was 3.11 µM and the GI50 (NCI-H226 lung) was 1.73 µM. It also gave a TGI (NCI-H226 lung) of over 25.8 µM, a GI50 (MDA-MB-231 breast) of 2.54 µM and a TGI (MDA-MB-231 breast) of 29.3 µM. For the same compound, the GI50 (MOLT-4 leukemia) was 2.44 µM, the TGI (MOLT-4 leukemia) was over 21.7 µM and the GI50 (SR leukemia) was 1.04 µM. For the same compound, the GI50 (MCF7 breast) was 0.701 µM, the TGI (MCF7 breast) was over 33 µM and the GI50 (SK-MEL-28 melanoma) was 0.987 µM. It also gave a TGI (SK-MEL-28 melanoma) of 10.6 µM, a GI50 (TK-10 renal) of 1.71 µM and a TGI (TK-10 renal) of 23.4 µM. It also gave a GI50 (PC-3 prostate) of 0.997 µM, a TGI (PC-3 prostate) of over 100 µM and a GI50 (RXF 393 renal) of 3.24 µM. For the same compound, the TGI (RXF 393 renal) was 20.3 µM, the GI50 (U251 CNS) was 0.628 µM and the TGI (U251 CNS) was over 39.3 µM. For the same compound, the GI50 (T-47D breast) was 0.314 µM, the GI50 (SNB-75 CNS) was 1.55 µM and the TGI (SNB-75 CNS) was 18.8 µM. The GI50 (LOX IMVI melanoma) was 1.07 µM, the TGI (LOX IMVI melanoma) was 4.24 µM and the GI50 (HCT-116 colon) was 0.382 µM. It also gave a TGI (HCT-116 colon) of 5.21 µM, a GI50 (NCI-H522 lung) of 0.75 µM and a GI50 (HOP-62 NSCLC) of 1.55 µM. The TGI (HOP-62 NSCLC) was 6.28 µM, the GI50 (IGROV1 ovarian) was 2.33 µM and the TGI (IGROV1 ovarian) was over 100 µM. It also gave a GI50 (SK-OV-3 ovarian) of 2.57 µM, a TGI (SK-OV-3 ovarian) of over 26.6 µM and a GI50 (BT-549 breast) of 0.671 µM. For the same compound, the TGI (BT-549 breast) was 14.3 µM, the GI50 (RPMI-8226 leukemia) was 0.201 µM and the TGI (RPMI-8226 leukemia) was 18 µM. The GI50 (KM12 colon) was 0.438 µM, the TGI (KM12 colon) was 4.5 µM and the GI50 (SF-268 CNS) was 2.7 µM. It also gave a TGI (SF-268 CNS) of over 57.8 µM, a GI50 (EKVX NSCLC) of 0.369 µM and a TGI (EKVX NSCLC) of over 58.6 µM.
